Assay results from patent US9487508B2, “SGC stimulators” (IRONWOOD PHARMACEUTICALS, INC., priority 2012, dated 2016).

Molecular target: T1, Human soluble guanylate cyclase enzyme (hsGC) (Homo sapiens, UniProt Q02108+Q02153)
T1 construct: purchased Enzo Inc. ALX-201-177
T1 sequence (Q02153 1-619): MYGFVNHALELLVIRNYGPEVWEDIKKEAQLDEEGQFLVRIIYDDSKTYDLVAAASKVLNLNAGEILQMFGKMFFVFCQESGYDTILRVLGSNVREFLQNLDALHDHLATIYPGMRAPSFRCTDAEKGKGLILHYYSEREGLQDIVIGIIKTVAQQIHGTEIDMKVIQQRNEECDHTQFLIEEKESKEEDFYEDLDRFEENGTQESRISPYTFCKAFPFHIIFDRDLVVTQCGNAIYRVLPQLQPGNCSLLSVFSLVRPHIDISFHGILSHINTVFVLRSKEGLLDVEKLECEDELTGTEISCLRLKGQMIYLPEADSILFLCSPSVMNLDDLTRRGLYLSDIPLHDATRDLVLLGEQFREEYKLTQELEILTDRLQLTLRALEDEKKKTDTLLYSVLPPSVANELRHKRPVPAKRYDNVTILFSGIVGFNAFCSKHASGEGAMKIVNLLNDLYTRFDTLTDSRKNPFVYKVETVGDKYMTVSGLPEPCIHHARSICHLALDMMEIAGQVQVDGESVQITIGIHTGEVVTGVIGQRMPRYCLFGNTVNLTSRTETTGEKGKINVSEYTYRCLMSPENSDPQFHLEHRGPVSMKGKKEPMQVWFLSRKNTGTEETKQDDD
T1 sequence (Q02108 1-690): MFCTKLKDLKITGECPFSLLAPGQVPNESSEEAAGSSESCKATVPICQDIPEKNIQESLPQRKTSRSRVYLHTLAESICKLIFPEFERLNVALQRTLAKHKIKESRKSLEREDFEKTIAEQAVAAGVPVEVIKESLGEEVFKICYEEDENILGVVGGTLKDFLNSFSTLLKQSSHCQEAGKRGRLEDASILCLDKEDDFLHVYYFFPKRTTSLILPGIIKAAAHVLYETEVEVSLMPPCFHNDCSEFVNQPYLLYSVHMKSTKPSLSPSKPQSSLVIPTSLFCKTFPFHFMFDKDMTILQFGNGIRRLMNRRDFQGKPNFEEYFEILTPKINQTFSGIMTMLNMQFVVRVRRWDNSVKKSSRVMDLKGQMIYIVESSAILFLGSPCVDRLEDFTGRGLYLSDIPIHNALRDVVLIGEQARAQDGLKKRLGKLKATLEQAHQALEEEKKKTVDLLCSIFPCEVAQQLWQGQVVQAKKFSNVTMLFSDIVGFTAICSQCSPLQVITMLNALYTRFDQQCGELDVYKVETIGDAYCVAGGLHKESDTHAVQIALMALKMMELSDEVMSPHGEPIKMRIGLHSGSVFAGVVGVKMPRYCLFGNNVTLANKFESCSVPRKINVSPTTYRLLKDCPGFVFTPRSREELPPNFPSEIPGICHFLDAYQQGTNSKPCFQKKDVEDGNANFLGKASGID
Assay: Purified human sGC enzyme synergy assay in the presence of sodium nitroprusside (SNP)
Type: biochemical
Settings: 30 μM compound, 1 μM SNP; fold change of specific activity vs DMSO control
Description: Human soluble guanylate cyclase enzyme (hsGC) obtained from Enzo Inc. (P/N: ALX-201-177) was used to evaluate the activity of test compounds. The assay reactions contained 0.1 M Tris (pH 8.0), 0.5 mg/mL BSA (pH 8.0), 2 mM DTT, 2 mM MgCl2, 300 μM GTP, 1 mM 3-isobutyl-1-methylxanthine (IBMX) and 5 ng human soluble guanylate cyclase enzyme. Test compounds in DMSO were then added (2 μL, 10 or 30 μM final concentration) and incubated (water, 200 μL, 96-well plate format) at 37° C. for 30 minutes. The controls were carried out using 2 μL DMSO. After the 30 minute incubation, the reaction was stopped with the addition of 200 μL of cold methanol. The plate was then centrifuged at 3,200 rpm for 10 minutes at room temperature. Supernatants (200 μL) were collected and transferred to a new 96 well plate for analysis by HPLC LC/MS/MS.
An 8 point cGMP (Sigma-Aldrich P/N: G6129) standard curve was prepared in assay buffer ranging from 0.156-20 μM. Samples for the cGMP standard curve were then diluted with an equal volume of methanol resulting in final cGMP concentrations of 0.078-10 μM.
The cGMP standard curve was generated using GraphPad Prism Software.
Calculations: Specific Activity was determined by the amount of cGMP formed (nmoles) per mg of sGC per min. Enzyme “fold-change” was calculated by dividing Specific Activity for test compounds by Specific Activity of DMSO controls. […]

- Enzyme Activity (increase at 30 μM with SNP): D (D = 10 or <20 fold increase)
SMILES: Nc1ccnc(-n2cc(-c3ncco3)c(Cc3ccccc3F)n2)n1 [Compound I-2]
